US20100004169A1, “CCN3 peptide” (The Queen's University of Belfast, priority 2006, published 2010)
d = 2'-deoxy (DNA); r = 2'-OH (RNA)

How the values were obtained:
BCR-ABL = experiment: Real-time PCR of BCR-ABL expression in CML cell lines (K562) after treatment; type: cell-based, human
Procedure: (§1) K562 cells were nucleofected following the manufacturer's instructions using the Cell Line Nucleofector Kit V, program T-16 (Amaxa GmbH, Cologne, Germany) and transfected with either the appropriate si-RNA, a scrambled si-RNA sequence or a non-silencing fluorescently labeled si-RNA (Amaxa GmbH) to monitor transfection efficiency. […] Leukemia.
(§2) RQ-PCR was performed with an ABI PRISM 7700 Sequence Detector which exploits TaqMan probe based chemistry (Applied Biosystems, Foster City, Calif.). The 5′ reporter used was 6-carboxyfluorescein (FAM) and the 3′ quencher was 6-carboxy-tetramethylrhodamine (TAMRA). Primers and probes for CCN3 were designed against GenBank published sequences in association with Primer Express (Applied Biosystems). […] Leukemia. […] Amplifications were performed following an initial 2-minute incubation at 50° C. to allow uracil-N-glycosylase (UNG) to destroy any contaminating […], followed by treatment at 95° C. for 10 minutes to inactivate the UNG enzyme and activate the AmpliTaq Gold DNA polymerase. This was followed by 40 to 45 cycles of denaturing at 95° C. for 15 seconds and annealing/extension at 60° C. for 1 minute. Data were collected and analysed with Sequence Detector v1.6.3 software (Applied Biosystems).

CCN3 [1] = experiment: Real-time PCR of CCN3 expression in CML cell lines (K562) after treatment; type: cell-based, human; settings: for CCN3 expression (in words): CML cell lines; for mean Ct change for CCN3: n=3
Procedure: as §1, §2

CCN3 [2] = experiment: Extracellular (secreted) CCN3 protein levels in K562 after siRNA to BCR-ABL; type: cell-based, human; settings: K562 cells, n=3
Procedure: Protein was extracted from cells by suspending in RIPA buffer (1×PBS, 1% Nonidet NP-40, 0.1% SDS) containing a cocktail of protease Inhibitors (Complete Mini Cocktail, Roche Diagnostics Ltd, Lewes, UK) at a concentration of 10^7 cells/mL and lysing for 10 minutes on ice. Samples were sonicated for 10 seconds to ensure complete lysis, centrifuged at 10,000 g at 4° C. for 10 minutes and the supernatant removed for analysis. Total protein content was determined by the […] using the BCA protein assay kit (Pierce, Cramlington, UK). Protein (15 μg) was loaded onto a pre-cast Bis-Tris polyacrylamide gel (10%) using the Novex mini gel system (Invitrogen, Paisley, UK) and subsequently transferred to a PVDF membrane. CCN3 expression was detected using an antibody raised against the C terminus of CCN3. Equivalent protein loading was controlled by monitoring actin expression using a pan-actin antibody (Cell Signalling Technology Inc, MA). Immunoblots were visualised by enhanced chemiluminescence (Supersignal, Pierce). Optical densitometry was performed using the […] (Ultra-Violet Products Ltd., Cambridge, UK) and corrected for protein loading. CCN3 protein is glycosylated and binds to heparin. Medium in which ts BCR-ABL FDCP-Mix or control cells had been grown for 24 hours was harvested and enriched for CCN3 protein using heparin sepharose. […]

CCN3 [3] = experiment: Western blot of cellular and secreted CCN3 in CD34+ cells from CML patients treated in vitro; type: cell-based, human; settings: CD34+ cells from three CML patients at diagnosis, imatinib 1 μM, 72 hours in vitro
CCN3 [4] = experiment: Real-time PCR of CCN3 in bone marrow of CML patients at diagnosis and following treatment; type: in vivo, human; settings: three CML patients, diagnosis vs following treatment
Source text: Leukemia. 2003; 17:2474-2486).

K562 cells = experiment: Flow cytometric cell cycle analysis (sub-G0) of K562 cells treated with exogenous recombinant CCN3; type: cell-based, human; settings: 100 ng/ml CCN3, 48 hours
Procedure: K562 cells (1×10^6 cells/well) were treated with recombinant CCN3 (100 ng/ml, Peprotech EC, London, UK) in vitro for 48 hours. Cells were then fixed in 70% ethanol for flow cytometric analysis of cell cycle status as before.

[5] = K562 cells, siRNA 0.5 μg/10^8 cells, 24 hours

Molecule | BCR-ABL expression (in words) (BCR-ABL; CML cell lines) | fold decrease in BCR-ABL (BCR-ABL; [5]) [fold] | mean Ct change for BCR-ABL (BCR-ABL; K562 cells, siRNA to BCR-ABL, n=3) | CCN3 expression (in words) (CCN3 [1]) | fold increase in CCN3 (CCN3 [1]; [5]) [fold] | mean Ct change for CCN3 (CCN3 [1]; K562 cells, siRNA to BCR-ABL) | decrease in secreted levels of CCN3 protein (CCN3 [2]) [%] | mean Ct change for CCN3 (CCN3 [1]; K562 cells, 1 μM imatinib, 96 hours) | cellular and secreted CCN3 expression (in words) (CCN3 [3]) | CCN3 expression following treatment (in words) (CCN3 [4]) | sub-G0 peak (K562 cells) [%]
si-RNA directed against BCR-ABL: 21-base si-RNA directed against the fusion sequence of BCR-ABL, SEQ ID NO 9 sense, SEQ ID NO 10 antisense (sense GCAGAGUUCAAAAGCCCUUTT; antisense AAGGGCUUUUGAACUCUGCTT; sugars from the 5' end r19 d2, backbone not given here) | significantly reduced BCR-ABL | 3.7 | 1.9±0.2 | increased CCN3 expression | 6.1 | 2.6±0.5 | 33±5 |  |  |  | 
Cc1ccc(NC(=O)c2ccc(CN3CCN(C)CC3)cc2)cc1Nc1nccc(-c2cccnc2)n1 [imatinib] |  |  |  | increased CCN3 expression |  |  |  | 2.1±0.2 | significant increase in both cellular and secreted CCN3 expression | reciprocal rise in CCN3 | 
recombinant CCN3: recombinant CCN3 protein from Peprotech EC, London, UK (protein, UniProt P48745 32-357, looked up) CCN family member 3: TQRCPPQCPGRCPATPPTCAPGVRAVLDGCSCCLVCARQRGESCSDLEPCDESSGLYCDRSADPSNQTGICTAVEGDNCVFDGVIYRSGEKFQPSCKFQCTCRDGQIGCVPRCQLDVLLPEPNCPAPRKVEVPGECCEKWICGPDEEDSLGGLTLAAYRPEATLGVEVSDSSVNCIEQTTEWTACSKSCGMGFSTRVTNRNRQCEMLKQTRLCMVRPCEQEPEQPTDKKGKKCLRTKKSLKAIHLQFKNCTSLHTYKPRFCGVCSDGRCCTPHNTKTIQAEFQCSPGQIVKKPVMVIGTCTCHTNCPKNNEAFLQELELKTTRGKM |  |  |  |  |  |  |  |  |  |  | 23.7±6.9
